Data set [1] addresses T1, enzyme (from seminal vesicles of sheep) (Ovis aries, UniProt P05979).
T1 sequence (P05979 25-600): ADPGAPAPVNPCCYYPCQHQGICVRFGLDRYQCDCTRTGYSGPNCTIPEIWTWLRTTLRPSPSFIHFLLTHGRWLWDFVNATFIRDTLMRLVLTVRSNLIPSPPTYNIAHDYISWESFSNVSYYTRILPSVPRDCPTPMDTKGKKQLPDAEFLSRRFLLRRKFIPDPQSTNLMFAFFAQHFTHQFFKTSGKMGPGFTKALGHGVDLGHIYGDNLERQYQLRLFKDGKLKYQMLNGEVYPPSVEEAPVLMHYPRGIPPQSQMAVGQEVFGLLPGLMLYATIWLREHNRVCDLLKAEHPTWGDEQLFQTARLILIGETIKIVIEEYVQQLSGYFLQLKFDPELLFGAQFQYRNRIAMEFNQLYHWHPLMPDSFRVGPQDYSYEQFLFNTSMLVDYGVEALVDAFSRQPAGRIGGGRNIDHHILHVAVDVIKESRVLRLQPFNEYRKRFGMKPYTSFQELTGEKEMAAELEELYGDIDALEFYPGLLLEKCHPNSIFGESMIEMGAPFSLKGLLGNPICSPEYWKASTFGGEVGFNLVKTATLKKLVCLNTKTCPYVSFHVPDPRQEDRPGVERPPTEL
The following applies: for relative total prostaglandin f: seminal vesicle enzyme, 10 min, pH 8.

For data set [2] the following is noted: for Stability (% of remaining arachidonic acid by Method 1): 24 h 37° C. Here is the method: Method 1: Investigation of the Stability of Unsaturated Fatty Acids in the Formulations
The stabilizing action of substances on polyunsaturated fatty acids was investigated as follows:
Test A for Water-Soluble Substances:
0.125 mg of unsaturated fatty acid or Na salt (see tables) (sodium arachidonate, from Sigma, Munich, Germany) is dissolved in 0.05 ml of water. 0.2 ml of aqueous solution which contains 2 mg of stabilizer and can additionally contain 2 mg of stimulator is mixed in (cf. Table 1), 0.1 ml is then taken out immediately, extracted and analysed (see below). Further processing according to modification 1 or 2.
Modification 1 for Aqueous Solutions
After 24 hours incubation at 37° C., 0.1 ml is again taken, extracted and analysed (see below).
Modification 2 for Solid Mixtures (Lyophilisates)
The test solution is lyophilized, the lyophilisate is incubated for 24 hours at 37° C. and then dissolved again in the previous quantity of water, and 0.1 ml is taken, extracted and analysed (see below).
Test B for Water-Insoluble Substances:
0.125 mg of unsaturated fatty acid (arachidonic acid, 5,8,11,14,17-eicosapentaenoic acid or 8,11,14-eicosatrienoic acid, from Sigma, Munich) is dissolved in 0.05 ml of ethanol or dimethyl sulfoxide. 0.2 ml of ethanol (or dimethyl sulfoxide) which contains 2 mg of stabilizer and can additionally contain 2 mg of the stimulator (cf. Table 1) is added thereto, and 0.1 ml is taken immediately and, as below, extracted and analysed. Further treatment according to modification 1 or 2.
Modification 1 for Solutions
After 24 hours' incubation at 37° C., 0.1 ml is again taken, mixed with 0.1 ml of water, extracted and analysed.
Modification 2 for Solid Mixtures
The remaining solution is freed of solvent, incubated for 24 hours at 37° C. and then dissolved again in 0.15 ml of solvent, and 0.1 ml is taken, mixed with 0.1 ml of water, extracted and analysed.
0.05 ml of 1.2M aqueous citric acid solution is added to the samples obtained, and the samples are extracted with twice 0.5 ml of ethyl acetate, the ethyl acetate is removed from the combined extracts and the residue is dissolved in 0.8 ml of methanol and analysed by means of high-pressure liquid chromatography (HPLC) (Rad Pak C-18 column, 100×8 mm, from Waters, Konigstein, Germany, 1.5 ml/minute, solvent 800 ml of methanol, 200 ml of water and 0.1 ml of glacial acetic acid). The separation is monitored with a commercially available UV detector at 206 nm.
The prostaglandins PGE2, PGF2 alpha and PGD2 as products from arachidonic acid where quantified by means of method 2, and the sum was related as "total prostaglandin" to 100%. The quantity of "total prostaglandin" formed without the addition of a stimulator was set at f=1; the quantity formed after stimulation was related thereto. f=2 or f=3 therefore means twice or three times the stimulation under the conditions of method 2. The stability of the sample was investigated by means of method 1 (right-hand column). […] Values greater than 25-28% therefore represent a stabilization, and values smaller than 25-28% represent a destabilization. Example No. 1 was carried out without a stimulator.

The nature of data set [3]: Storage of sodium arachidonate solution at room temperature for 6 weeks. The format is physicochemical. The following applies: water; solution without additions, after 6 weeks at room temperature; read-out: arachidonic acid content. Here is the method:
50 mg of sodium arachidonate, 500 mg of bovine serum albumin and 500 mg of L-tyrosine are dissolved under sterile conditions in 10 ml of twice distilled water and, likewise under sterile conditions, stored in a brown bottle. 93.5% of the arachidonic acid originally present are recovered after 6 weeks' storage at room temperature, whereas the same sodium arachidonate solution without additions virtually no longer contain any arachidonic acid after this time (content <0.8). The stabilized solution prepared in this way

Where [4] appears, read: Table 1, share of total prostaglandin (=100%).
[5] abbreviates: A) aqueous solution without stabilizer addition.
Setting [6] is: B) ethanolic solution without further addition.
Where [7] appears, read: H) like A) with bovine serum albumin.
Where [8] appears, read: M) like J) with human serum albumin.
The mark [9] stands for this setting: J) like A) or B), but solvent stripped off.
The mark [10] stands for this setting: Table 2, share of total prostaglandin.

Read-outs that look alike come from different tables or passages of the source. Some results are limits rather than exact numbers.

Take `NCCc1c[nH]c2ccc(O)cc12` [Example 22]: the PGD2 % in data set [1] (setting [4]) was 20%. The compound also came in with a PGE2 % in data set [1] (setting [4]) of 75%. Moreover, the PGF2alpha % in data set [1] (setting [4]) is recorded as 5%. Further, the “relative total prostaglandin f” value in data set [1] is recorded as 10.6. Besides, the “Stability (% of remaining arachidonic acid by Method 1)” value in data set [2] (setting [5]) came out at 16%; in data set [2] (setting [6]), 99%; in data set [2] (E) like B) with lecithin, ethanol stripped off), 96%; in data set [2] (F) like A) with cytochrome c from horse heart), 98%; in data set [2] (K) like J) with cytochrome c), 98%; in data set [2] (L) like J) with hemoglobin (human)), 100%.
`NCCc1ccc(O)c(O)c1` [Example 10]: the PGD2 % in data set [1] (setting [4]) worked out at 13%. Further, the PGE2 % in data set [1] (setting [4]) worked out at 52%. Moreover, in data set [1] (setting [4]), the PGF2alpha % was 35%. Besides, the “Stability (% of remaining arachidonic acid by Method 1)” value turned out to be 17% in data set [2] (setting [5]); 95% in data set [2] (setting [6]); 9% in data set [2] (C) pyridine solution); 100% in data set [2] (setting [7]); 98% in data set [2] (K) like J) with cytochrome c); 100% in data set [2] (setting [8]).
In data set [1] (setting [4]), `NC(Cc1ccc(O)cc1)C(=O)O` (stereo not shown) [Example 6] had a PGD2 % of 17%. For the same compound, the PGE2 % in data set [1] (setting [4]) was 81%. This compound had a PGF2alpha % in data set [1] (setting [4]) of 2%. In addition, the “Stability (% of remaining arachidonic acid by Method 1)” value in data set [2] (setting [5]) is given as 91%; in data set [2] (setting [6]) it was 100%; in data set [2] (C) pyridine solution), 67%; in data set [2] (setting [9]), 98%; in data set [2] (K) like J) with cytochrome c), 100%; in data set [2] (setting [8]), 100%.
In data set [1] (setting [4]), `O=C(O)CCc1c[nH]c2ccc(O)cc12` [Example 21] gave a PGD2 % of 17%, a PGE2 % of 80% and a PGF2alpha % of 3%. The “relative total prostaglandin f” value in data set [1] was determined as 5.7. Besides, the “Stability (% remaining fatty acid by Method 1)” value in data set [2] (1440 min) was found to be 96%.
In data set [1] (setting [10]), `O=c1c(O)c(-c2ccc(O)cc2)oc2cc(O)cc(O)c12` [Example 56, Kaempferol] yielded a PGD2 % of 13%, a PGE2 % of 76% and a PGF2alpha % of 11%. The “relative total prostaglandin f” value in data set [1] stood at 0.5. In data set [2] (1440 min), the “Stabilization (% remaining unsaturated fatty acid by Method 1)” value is reported as 98%.
Take `CCCCC/C=C\C/C=C\C/C=C\C/C=C\CCCC(=O)O` [sodium arachidonate]: the remaining at 1008 h in data set [3] is less than 0.8%.
Turning to `CC(=O)NC(Cc1ccc(O)cc1)C(N)=O` (stereo not shown) [Example 11], the Stimulation result in data set [1] (Table 1, result in words) is reported as “positive”. Also, in data set [2], the Stabilization entry is given as “positive”.
In data set [1] (setting [4]), `N[C@@H](CS)C(=O)O` [Example 33, L-cysteine] had a PGD2 % of 27%, a PGE2 % of 56% and a PGF2alpha % of 17%. Also, the “Stability (% remaining fatty acid by Method 1)” value in data set [2] (1440 min) stood at 94%.
As for `O=C(O)C=Cc1ccc(O)c(O)c1` [Example 17], in data set [1] (setting [4]), the PGD2 % came out at 17%. This compound also yielded a PGE2 % in data set [1] (setting [4]) of 70%. Also, the PGF2alpha % in data set [1] (setting [4]) is reported as 13%. The “relative total prostaglandin f” value in data set [1] worked out at 5.7. In addition, the “Stability (% of remaining arachidonic acid by Method 1)” value was 19% in data set [2] (setting [5]); 99% in data set [2] (D) with rutin, predissolved in dimethyl sulfoxide, dimethyl sulfoxide then stripped off); 95% in data set [2] (G) like A) with methemoglobin (human)); 99% in data set [2] (setting [7]); 16% in data set [2] (setting [9]); 98% in data set [2] (setting [8]).
